Measured values: patent US20080249156A1, “Combinations of statins and anti-obesity agent and glitazones” (priority 2007, published 2008)
Like-named read-outs stand apart in the source and are kept apart here.

Experiments:
[1] = not given; remark: listed apart in the source
[2] = Example 1, patient on rosiglitazone 4 mg once a day
[3] = Example 2, patient on rosiglitazone 4 mg twice a day and metformin 500 mg twice daily
[4] = Example 3, patient on rosiglitazone 8 mg once daily and metformin 500 mg once daily

total cholesterol since beginning the rosiglitazone therapy [1, 2]: increase | total cholesterol since beginning the rosiglitazone therapy [1, 3]: increase | total cholesterol since beginning the rosiglitazone therapy [1, 4]: increase
SMILES: CN(CCOc1ccc(CC2SC(=O)NC2=O)cc1)c1ccccn1 (stereo not drawn) [rosiglitazone]
body weight since beginning the rosiglitazone therapy [2]: increase | body weight since beginning the rosiglitazone therapy [3]: increase | body weight since beginning the rosiglitazone therapy [4]: increase
